System: thrombin
Assay: THROGA (thrombin generation assay): maximal thrombin generation in citrate blood or plasma of treated patients
Format: in vivo, human
Method: For maximal generation of thrombin, a small amount of anti-coagulant blood or plasma is used. For this, citrate, but also every other anti-coagulant may be used. 0.1 ml citrate blood or citrate plasma each are put into a reference tube (NaCl) and an activator tube (tissue factor+mixture of ellagic acid and phospholipids) in which a defined amount of hirudin is present. After closing the reaction vessels, the two containers are mixed in a mini shaker at 550 rpm at room temperature for 25 minutes. The activation of coagulation is subsequently terminated with a stop solution containing EDTA and the remaining not-consumed free hirudin is determined with a precise detection method. For the exact measurement of the hirudin content in the reaction vessels, a commercial available chromogenic hirudin determination method via chromogenic substrate (ECA, Ecarin Chromogenic Assay, WO 0046602) is employed.
For one determination, 100 μl citrate blood or citrate plasma, respectively, are put into one activator tube and one reference tube each. In order to avoid evaporation, the tubes should be closed after dissolving (“Lösen”). Subsequently, the tubes are put into a shaker for 30-60 minutes. In order to terminate the reaction after shaking, 1000 μl stop reagent are added into each tube and carefully mixed with the pipette.
In both THROGA-samples (reference tube and activator tube) the anti-thrombin units (ATU) are now determined via ECA-H.
From the ATU determined in reference tube and activator tube, respectively, the thrombin units formed in the plasma or blood sample are calculated with the following formula: ETP=R−A • ETP maximal endogenic thrombin potential, thrombin units formed in 1 ml blood or plasma • R anti-thrombin units in the reference tube (ATU/ml blood or plasma) • A anti-thrombin units in the activator tube (ATU/ml blood or plasma) Generating a Reference Curve

[1] = patient two under falithrom, blood
[2] = patient two under falithrom, plasma

SMILES	ATU/ml; TU/ml (generated thrombin, THROGA-value), blood (patient one, state after cerebral insult, after 8 weeks of clopidogrel, 1.5 tablets daily (112.5 mg), blood, norm 78±13 TU/ml, 99.5 prior to therapy)	THROGA-values in all further controls (patient one, under clopidogrel therapy)	ATU/ml; TU/ml (generated thrombin, THROGA-value), plasma (patient one, after 8 weeks of clopidogrel, 1.5 tablets daily (112.5 mg), plasma, N: 122±19 TU/ml, 118.5 prior to therapy)	% of the normal generable thrombin amount in the blood [1]	generated thrombin in the blood [1]	bleeding tendency (patient two under falithrom, judged from the THROGA-value in blood)	% of the normal plasma value [2]	generated thrombin in the plasma [2]	Difference control (A) minus activated sample (B), blood (patient two, thrombophilia upon gammopathy, thrombosis prophylaxis with falithrom, blood, use of the kit)	Difference control (A) minus activated sample (B), plasma (patient two, thrombosis prophylaxis with falithrom, plasma, use of the kit)
COC(=O)[C@H](c1ccccc1Cl)N1CCc2sccc2C1 [clopidogrel]	82.2 TU/ml	normal	116.9 TU/ml	–	–	–	–	–	–	–
CCC(c1ccccc1)c1c(O)c2ccccc2oc1=O (stereo not shown) [falithrom]	–	–	–	60%	46.3 TU/ml	no bleeding tendency can be observed	32%	39.3 TU/ml	46.3 ATU/ml	39.3 ATU/ml
